According to ChEMBL document CHEMBL1143153, “BACE-1 inhibitors part 1: identification of novel hydroxy ethylamines (HEAs)” (Bioorg Med Chem Lett, 2008):

Experiments:
Beta-secretase 1 [1] = target: T1, Beta-secretase 1 (Homo sapiens, UniProt P56817); test: Inhibition of BACE1 expressed in SHSY5Y cells assessed as reduction of amyloid beta 40 production; assay type: cell-based, SH-SY5Y
Beta-secretase 1 [2] = target: T1, Beta-secretase 1; test: Inhibition of BACE1
Beta-secretase 2 = target: T2, Beta-secretase 2 (Homo sapiens, UniProt Q9Y5Z0); test: Inhibition of BACE2
T2 sequence (Q9Y5Z0 whole entry): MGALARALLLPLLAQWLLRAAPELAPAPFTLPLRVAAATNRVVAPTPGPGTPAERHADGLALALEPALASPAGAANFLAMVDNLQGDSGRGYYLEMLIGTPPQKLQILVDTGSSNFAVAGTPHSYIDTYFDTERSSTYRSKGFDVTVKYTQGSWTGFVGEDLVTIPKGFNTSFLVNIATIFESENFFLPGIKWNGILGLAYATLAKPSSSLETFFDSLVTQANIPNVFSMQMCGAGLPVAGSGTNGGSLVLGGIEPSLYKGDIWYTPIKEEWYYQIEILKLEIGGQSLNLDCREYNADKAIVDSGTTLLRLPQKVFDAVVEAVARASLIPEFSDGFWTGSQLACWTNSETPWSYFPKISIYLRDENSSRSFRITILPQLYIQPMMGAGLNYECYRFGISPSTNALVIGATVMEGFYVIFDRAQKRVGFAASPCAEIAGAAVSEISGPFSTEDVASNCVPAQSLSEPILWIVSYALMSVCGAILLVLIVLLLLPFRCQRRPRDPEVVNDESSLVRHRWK

Beta-secretase 1 [3] = target: T1, Beta-secretase 1; assay type: cell-based, SH-SY5Y
Cathepsin D = Cathepsin D (Homo sapiens, UniProt P07339); test: Inhibition of cathepsin D
Cathepsin D, sequence (P07339 65-162 limits assumed): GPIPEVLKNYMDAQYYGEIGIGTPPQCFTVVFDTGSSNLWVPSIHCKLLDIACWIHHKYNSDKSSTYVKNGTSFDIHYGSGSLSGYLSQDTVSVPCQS
Cathepsin D, sequence (P07339 169-412 limits assumed): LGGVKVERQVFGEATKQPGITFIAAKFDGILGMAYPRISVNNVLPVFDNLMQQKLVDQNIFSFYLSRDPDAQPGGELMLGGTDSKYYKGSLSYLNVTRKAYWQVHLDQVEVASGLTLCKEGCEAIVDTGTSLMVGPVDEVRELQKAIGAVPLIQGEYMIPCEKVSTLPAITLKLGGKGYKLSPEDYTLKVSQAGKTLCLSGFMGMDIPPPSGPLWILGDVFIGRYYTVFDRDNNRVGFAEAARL

T1 sequence (P56817 whole entry): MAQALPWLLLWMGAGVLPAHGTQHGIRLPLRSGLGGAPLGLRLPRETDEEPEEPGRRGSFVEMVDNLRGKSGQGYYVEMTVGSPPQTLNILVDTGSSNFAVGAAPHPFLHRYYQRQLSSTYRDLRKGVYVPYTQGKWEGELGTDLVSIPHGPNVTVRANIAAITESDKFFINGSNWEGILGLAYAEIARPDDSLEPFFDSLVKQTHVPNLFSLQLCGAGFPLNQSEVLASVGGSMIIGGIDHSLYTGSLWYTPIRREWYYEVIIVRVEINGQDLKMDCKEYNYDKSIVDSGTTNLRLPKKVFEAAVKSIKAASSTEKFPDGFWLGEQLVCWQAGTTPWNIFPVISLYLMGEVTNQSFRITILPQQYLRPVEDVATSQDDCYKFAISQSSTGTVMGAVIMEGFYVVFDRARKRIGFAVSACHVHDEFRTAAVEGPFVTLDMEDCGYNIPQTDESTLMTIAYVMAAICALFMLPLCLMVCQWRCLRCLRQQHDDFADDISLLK

Row | SMILES | IC50 (Beta-secretase 1 [1]) [µM] | IC50 (Beta-secretase 1 [2]) [µM] | IC50 (Beta-secretase 2) [µM] | IC50 (Beta-secretase 1 [3]) [µM] | IC50 (Cathepsin D) [µM]
1 | CC(C)Nc1cc(C(=O)N[C@@H](Cc2ccccc2)[C@H](O)CN[C@@H](C)C(=O)NC2CCCCC2)cc(N2CCCC2=O)c1 | 0.33 | 0.039 | 0.83 | 0.28 | 5.41
2 | C[C@H](NC[C@@H](O)[C@H](Cc1ccccc1)NC(=O)c1cc(N2CCCC2)cc(N2CCCC2=O)c1)C(=O)NC1CCCCC1 | – | 0.86 | 8.79 | – | 9.28
3 | CC(C)Oc1cc(C(=O)N[C@@H](Cc2ccccc2)[C@H](O)CN[C@@H](C)C(=O)NC2CCCCC2)cc(N2CCCC2=O)c1 | 1.13 | 0.12 | 4.79 | 1.18 | 12.3
4 | CC(C)C[C@H](NC(=O)c1cccc(S(C)(=O)=O)c1)[C@H](O)CN[C@@H](C)C(=O)NC1CCCCC1 | – | > 500 | – | – | –
5 | CCCCCOc1cc(C(=O)N[C@@H](Cc2ccccc2)[C@H](O)CN[C@@H](C)C(=O)NC2CCCCC2)cc(N2CCCC2=O)c1 | – | 0.032 | 0.4 | – | 0.43
6 | CCOc1cc(C(=O)N[C@@H](Cc2ccccc2)[C@H](O)CN[C@@H](C)C(=O)NC2CCCCC2)cc(N2CCCC2=O)c1 | 0.97 | 0.059 | 5.13 | 1.42 | 7.94
7 | COc1cc(C(=O)N[C@@H](Cc2ccccc2)[C@H](O)CN[C@@H](C)C(=O)NC2CCCCC2)cc(N2CCCC2=O)c1 | – | 0.745 | 28.6 | – | 30
8 | CC(=O)Nc1ccc(C(=O)N[C@@H](Cc2ccccc2)[C@H](O)CN[C@@H](C)C(=O)NC2CCCCC2)cc1 | – | 62 | > 100 | – | > 100
9 | C[C@H](NC[C@@H](O)[C@H](Cc1ccccc1)NC(=O)c1cccc(N2CCCS2(=O)=O)c1)C(=O)NC1CCCCC1 | – | 1.9 | > 21 | – | 10
10 | CCCOc1cc(C(=O)N[C@@H](Cc2ccccc2)[C@H](O)CN[C@@H](C)C(=O)NC2CCCCC2)cc(N2CCCC2=O)c1 | 1.69 | – | 8.24 | 1.38 | 47.1
11 | CCCCCS(=O)(=O)c1cccc(C(=O)N[C@@H](Cc2ccccc2)[C@H](O)CN[C@@H](C)C(=O)NC2CCCCC2)c1 | – | – | 3.6 | – | 0.6

The remaining lines, values ahead:

Row | IC50 (Beta-secretase 1 [1]) [µM] | IC50 (Beta-secretase 1 [2]) [µM] | IC50 (Beta-secretase 2) [µM] | IC50 (Beta-secretase 1 [3]) [µM] | IC50 (Cathepsin D) [µM] | SMILES
12 | – | 0.18 | 0.65 | – | 3.09 | CC(C)CNc1cc(C(=O)N[C@@H](Cc2ccccc2)[C@H](O)CN[C@@H](C)C(=O)NC2CCCCC2)cc(N2CCCC2=O)c1
13 | – | > 500 | – | – | – | C[C@H](NC[C@H](O)[C@H](Cc1ccccc1)NC(=O)c1cccc(S(C)(=O)=O)c1)C(=O)NC1CCCCC1
14 | 0.99 | 0.072 | 1.58 | 0.69 | 4.57 | CCCc1cc(C(=O)N[C@@H](Cc2ccccc2)[C@H](O)CN[C@@H](C)C(=O)NC2CCCCC2)cc(N2CCCC2=O)c1
15 | – | > 500 | – | – | – | C[C@@H](C(=O)NC1CCCCC1)N(C)C[C@@H](O)[C@H](Cc1ccccc1)NC(=O)c1cccc(S(C)(=O)=O)c1
16 | – | 1.45 | 12.9 | – | 6.17 | CCOc1cc(C(=O)N[C@@H](Cc2ccccc2)[C@H](O)CN[C@@H](C)C(=O)NC2CCCCC2)cc(N2CCCC2)c1
